The values that follow come from PubChem BioAssay (NCI).

Some test systems named below: SK-MEL-28 melanoma; M14 melanoma; SR leukemia; 786-0 renal; SNB-75 CNS; TK-10 renal; SN12C renal; SK-MEL-2 melanoma; PC-3 prostate; MCF7 breast.
Common to all, as to assay: NCI-60 cell line screen, 48 h

Molecules are shown by their SMILES.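 Step 1: Grow cells in 96-well plates. Step 2: Expose to compound for 48 hours at 5 concentrations. Step 3: Interpolate endpoints linearly; if unreached, use highest concentration. GI50 = concentration required for 50% inhibition of growth. TGI: concentration producing complete growth inhibition.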

Regarding `O=C(c1ccccc1)[C@H]1Nc2ccc(Cl)cc2[C@H]2c3ccccc3O[C@H]21`, the TGI in the assay with SK-MEL-28 melanoma was 25.8 µM; in the assay with M14 melanoma, 30.1 µM; with SR leukemia, 66.6 µM; in the assay on 786-0 renal, 30.6 µM; in the assay on SNB-75 CNS, 25.6 µM; with TK-10 renal, 30.4 µM. Further, the TGI came to 29.1 µM in the assay with SN12C renal and 27.3 µM in the assay with SK-MEL-2 melanoma.

`COc1ccc(-c2cc(=O)c3c(C)ccnc3[nH]2)cc1`: the GI50 in the assay with PC-3 prostate was 18.1 µM; in the assay on 786-0 renal it was 25.3 µM. In addition, the TGI with PC-3 prostate, in the assay with SK-MEL-28 melanoma, in the assay with M14 melanoma, with 786-0 renal, in the assay with TK-10 renal and in the assay on SN12C renal was more than 100 µM throughout. In addition, the TGI in the assay on MCF7 breast is more than 100 µM; in the assay with SK-MEL-2 melanoma, 28.1 µM.

Take `O=c1[nH]c(=O)n(Cc2ccc(C34CC5CC(CC(C5)C3)C4)c(O)c2)cc1F`: the GI50 with SK-MEL-28 melanoma is 4.62 µM; in the assay with M14 melanoma it was 11.5 µM; in the assay on SR leukemia, 5.32 µM; in the assay with 786-0 renal, 13.8 µM; in the assay with SNB-75 CNS it was 12.8 µM; in the assay on TK-10 renal, 15.4 µM. The figures for the GI50 with SN12C renal, with MCF7 breast and in the assay on SK-MEL-2 melanoma were 13.5 µM, 11.9 µM and 15.8 µM, respectively. Besides, the TGI is 21.8 µM with SK-MEL-28 melanoma; 29.2 µM in the assay on M14 melanoma; 19.9 µM in the assay on SR leukemia; 28.5 µM in the assay with 786-0 renal; 32 µM with SNB-75 CNS; 33.7 µM in the assay on TK-10 renal. The TGI in the assay on SN12C renal was found to be 26.8 µM; with MCF7 breast, 30.9 µM; with SK-MEL-2 melanoma, 39.4 µM.

Take `O=c1c2ccccc2c(=O)n2n1-c1cccc(c1)CSSCc1cccc-2c1`: the GI50 in the assay on SK-MEL-28 melanoma, with SR leukemia, in the assay on TK-10 renal, with SN12C renal and in the assay on SK-MEL-2 melanoma was more than 100 µM in each case. The TGI in the assay on SK-MEL-28 melanoma, with SR leukemia, in the assay with 786-0 renal, in the assay on TK-10 renal, in the assay with SN12C renal and with SK-MEL-2 melanoma was more than 100 µM throughout.

Take `CC1=NC2(C(=O)O)C3(C(=O)O)N=C(C)OC3(C(F)(F)F)C2(C(F)(F)F)O1` (stereo unspecified): the TGI with SK-MEL-28 melanoma, in the assay on M14 melanoma, in the assay on SR leukemia, in the assay with 786-0 renal, in the assay on SNB-75 CNS and in the assay on TK-10 renal was more than 100 µM in each case. The TGI in the assay with SN12C renal and in the assay on SK-MEL-2 melanoma was more than 100 µM each time.

On to `CCN(CC)CCN1C(=O)C2C3C(C)=CC(OC(C)=O)(CC3C)C2C1=O` (stereo unspecified), for which the GI50 in the assay with PC-3 prostate, with M14 melanoma, with SR leukemia, in the assay on 786-0 renal, with SNB-75 CNS and with TK-10 renal was more than 100 µM each time. Further, the GI50 with SN12C renal and with SK-MEL-2 melanoma was more than 100 µM in each case. In addition, the TGI with PC-3 prostate, in the assay with M14 melanoma, in the assay with SR leukemia, with 786-0 renal, in the assay on SNB-75 CNS and with TK-10 renal was more than 100 µM in each case. For the same compound, the TGI with SN12C renal and with SK-MEL-2 melanoma was more than 100 µM throughout.

For the compound `O=C1c2ccccc2C(=O)N1C/C=N/NS(=O)(=O)c1cccc([N+](=O)[O-])c1`, the TGI in the assay with M14 melanoma, in the assay on SR leukemia, in the assay with 786-0 renal, with SNB-75 CNS, with TK-10 renal and in the assay on SN12C renal was more than 100 µM throughout. Moreover, the TGI in the assay with SK-MEL-2 melanoma is more than 100 µM.

For `CCOc1ccc2c(c1)[n+]([O-])c(-c1ccccc1)c(N)[n+]2[O-]`, the TGI in the assay on SK-MEL-28 melanoma, in the assay with M14 melanoma, with 786-0 renal, in the assay on SNB-75 CNS, in the assay on TK-10 renal and with SN12C renal was more than 100 µM each time. The compound also yielded a TGI in the assay on SK-MEL-2 melanoma of more than 100 µM.

Consider `Cc1cc[c]([Sb]2[O]C(CO)C(C(O)C(O)C(=O)O)[O]2)cc1` (stereo unspecified), for which the GI50 is 57.7 µM with PC-3 prostate; 39.6 µM in the assay with SK-MEL-28 melanoma; 90 µM in the assay on M14 melanoma; 47.2 µM in the assay with SR leukemia; 38.4 µM with 786-0 renal; 23 µM in the assay with SNB-75 CNS. For the same compound, the figures for the GI50 in the assay on SN12C renal and in the assay with SK-MEL-2 melanoma were 51.9 µM and 21.4 µM, respectively. Further, the TGI was more than 100 µM with PC-3 prostate; more than 100 µM with SK-MEL-28 melanoma; more than 100 µM with M14 melanoma; more than 100 µM in the assay with SR leukemia; more than 100 µM in the assay on 786-0 renal; 76.8 µM in the assay with SNB-75 CNS. Also, the TGI with TK-10 renal was 0.58 µM; in the assay with SN12C renal it was more than 100 µM; in the assay on SK-MEL-2 melanoma, 45.5 µM.

As to `CCOP(=O)(OCC)C(C(=O)OC)C(=O)C(=O)Nc1cccc([N+](=O)[O-])c1` (stereo unspecified), the TGI in the assay with SK-MEL-28 melanoma, in the assay with M14 melanoma, with SR leukemia, with 786-0 renal, in the assay on SNB-75 CNS and in the assay on TK-10 renal was more than 100 µM throughout. Also, the TGI with SN12C renal and in the assay on SK-MEL-2 melanoma was more than 100 µM in each case.

Regarding `CN1CCN(c2cc(F)c(NC3=C(Cl)C(=O)c4ncccc4C3=O)c(F)c2)CC1`, the GI50 with PC-3 prostate was 1.6 µM; in the assay on SK-MEL-28 melanoma, 1.88 µM; in the assay with M14 melanoma it was 1.82 µM; in the assay on 786-0 renal, 1.84 µM; in the assay with SNB-75 CNS, 1.37 µM; in the assay with TK-10 renal, 1.81 µM. Moreover, the GI50 was 1.7 µM in the assay with SN12C renal, 1.07 µM in the assay on MCF7 breast and 1.77 µM in the assay with SK-MEL-2 melanoma. Further, the TGI turned out to be 3.74 µM with PC-3 prostate; 3.36 µM with SK-MEL-28 melanoma; 3.39 µM with M14 melanoma; 3.8 µM in the assay with 786-0 renal; 5.61 µM with SNB-75 CNS; 3.32 µM in the assay on TK-10 renal. Moreover, the TGI in the assay with SN12C renal was 3.29 µM; in the assay on MCF7 breast it was 2.87 µM; in the assay on SK-MEL-2 melanoma, 3.6 µM.

For the compound `CN(N=O)C(=O)NC(CCCCNC(=O)OCc1ccccc1)C(=O)OCc1ccccc1` (stereo unspecified), the TGI is 56.1 µM in the assay on SK-MEL-28 melanoma; 36.9 µM in the assay with M14 melanoma; 58.4 µM in the assay with SR leukemia; 33.6 µM in the assay on 786-0 renal; 36 µM with SNB-75 CNS; more than 100 µM with TK-10 renal. Besides, the TGI came out at 31.9 µM in the assay with SN12C renal and 85.5 µM with SK-MEL-2 melanoma.
